Measurements reported in ChEMBL document CHEMBL5465560, “Selectivity Literature for EUbOPEN Chemogenomic Library” (2024).
Each block holds one compound with its values, some of them ahead of it.

Experiments:
[1] = molecular target: T1, Myosin-IIIb (Homo sapiens) (UniProt Q8WXR4); assay: Selectivity interaction (KinomeScan (DiscoverX)) EUB0000666a MYO3B; settings: at 10 µM
T1 sequence (whole entry): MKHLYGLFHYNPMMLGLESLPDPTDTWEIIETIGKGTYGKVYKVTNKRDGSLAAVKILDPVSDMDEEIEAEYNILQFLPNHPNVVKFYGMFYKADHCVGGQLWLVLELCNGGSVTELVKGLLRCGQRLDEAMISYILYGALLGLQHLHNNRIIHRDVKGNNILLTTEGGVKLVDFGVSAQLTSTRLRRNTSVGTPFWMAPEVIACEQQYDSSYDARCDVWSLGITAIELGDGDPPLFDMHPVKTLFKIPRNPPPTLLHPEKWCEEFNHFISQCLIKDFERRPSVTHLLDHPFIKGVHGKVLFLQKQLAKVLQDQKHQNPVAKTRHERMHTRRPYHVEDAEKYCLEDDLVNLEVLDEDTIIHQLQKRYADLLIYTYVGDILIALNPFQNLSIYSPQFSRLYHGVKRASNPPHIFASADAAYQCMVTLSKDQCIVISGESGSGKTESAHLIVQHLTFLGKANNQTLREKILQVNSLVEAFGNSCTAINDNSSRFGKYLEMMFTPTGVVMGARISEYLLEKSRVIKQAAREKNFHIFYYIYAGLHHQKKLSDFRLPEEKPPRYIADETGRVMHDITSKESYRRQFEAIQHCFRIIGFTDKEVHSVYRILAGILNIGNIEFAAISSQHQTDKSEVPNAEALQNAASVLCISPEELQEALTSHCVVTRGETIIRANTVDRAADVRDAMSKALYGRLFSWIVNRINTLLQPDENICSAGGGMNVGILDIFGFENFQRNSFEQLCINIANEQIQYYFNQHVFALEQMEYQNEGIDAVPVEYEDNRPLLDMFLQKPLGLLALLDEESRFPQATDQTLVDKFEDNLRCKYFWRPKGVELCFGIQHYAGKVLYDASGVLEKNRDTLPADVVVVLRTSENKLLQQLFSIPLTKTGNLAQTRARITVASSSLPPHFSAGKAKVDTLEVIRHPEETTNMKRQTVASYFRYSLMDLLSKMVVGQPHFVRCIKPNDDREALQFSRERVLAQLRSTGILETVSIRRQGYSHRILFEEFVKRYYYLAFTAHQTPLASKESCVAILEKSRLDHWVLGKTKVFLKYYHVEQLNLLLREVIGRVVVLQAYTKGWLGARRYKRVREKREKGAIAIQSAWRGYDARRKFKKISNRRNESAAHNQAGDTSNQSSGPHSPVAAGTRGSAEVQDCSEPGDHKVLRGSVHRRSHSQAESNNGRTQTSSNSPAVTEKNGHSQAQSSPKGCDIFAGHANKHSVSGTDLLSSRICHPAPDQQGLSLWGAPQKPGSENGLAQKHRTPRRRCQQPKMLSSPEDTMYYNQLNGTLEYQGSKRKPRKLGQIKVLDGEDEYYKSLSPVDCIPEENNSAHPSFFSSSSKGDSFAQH

[2] = molecular target: Casein kinase I isoform gamma-1 (Homo sapiens) (UniProt Q9HCP0); assay: Selectivity interaction (Upstate Kinase Profiler service (Millipore)) EUB0000056c CSNK1G1; settings: at 1 µM
Sequence of Casein kinase I isoform gamma-1 (Homo sapiens) (Q9HCP0 whole entry, looked up, canonical isoform): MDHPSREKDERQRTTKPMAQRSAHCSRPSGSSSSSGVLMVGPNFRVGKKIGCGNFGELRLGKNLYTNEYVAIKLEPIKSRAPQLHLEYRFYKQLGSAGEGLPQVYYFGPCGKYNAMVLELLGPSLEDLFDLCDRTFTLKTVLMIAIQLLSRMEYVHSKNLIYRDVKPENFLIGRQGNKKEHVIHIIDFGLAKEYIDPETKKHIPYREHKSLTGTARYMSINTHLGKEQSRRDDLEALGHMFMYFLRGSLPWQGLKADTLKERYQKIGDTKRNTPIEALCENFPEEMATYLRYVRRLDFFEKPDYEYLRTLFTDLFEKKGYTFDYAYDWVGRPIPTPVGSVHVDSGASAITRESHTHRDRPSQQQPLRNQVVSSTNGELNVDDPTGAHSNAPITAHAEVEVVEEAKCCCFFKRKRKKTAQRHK

[3] = molecular target: BMP-2-inducible protein kinase (Homo sapiens) (UniProt Q9NSY1); assay: Selectivity interaction (Ambit KINOMEscan and KiNATiv profiling in Jurkat cells) EUB0000090b BMP2K; type: cell-based; settings: at 1 µM
Sequence of BMP-2-inducible protein kinase (Homo sapiens) (Q9NSY1 whole entry, looked up): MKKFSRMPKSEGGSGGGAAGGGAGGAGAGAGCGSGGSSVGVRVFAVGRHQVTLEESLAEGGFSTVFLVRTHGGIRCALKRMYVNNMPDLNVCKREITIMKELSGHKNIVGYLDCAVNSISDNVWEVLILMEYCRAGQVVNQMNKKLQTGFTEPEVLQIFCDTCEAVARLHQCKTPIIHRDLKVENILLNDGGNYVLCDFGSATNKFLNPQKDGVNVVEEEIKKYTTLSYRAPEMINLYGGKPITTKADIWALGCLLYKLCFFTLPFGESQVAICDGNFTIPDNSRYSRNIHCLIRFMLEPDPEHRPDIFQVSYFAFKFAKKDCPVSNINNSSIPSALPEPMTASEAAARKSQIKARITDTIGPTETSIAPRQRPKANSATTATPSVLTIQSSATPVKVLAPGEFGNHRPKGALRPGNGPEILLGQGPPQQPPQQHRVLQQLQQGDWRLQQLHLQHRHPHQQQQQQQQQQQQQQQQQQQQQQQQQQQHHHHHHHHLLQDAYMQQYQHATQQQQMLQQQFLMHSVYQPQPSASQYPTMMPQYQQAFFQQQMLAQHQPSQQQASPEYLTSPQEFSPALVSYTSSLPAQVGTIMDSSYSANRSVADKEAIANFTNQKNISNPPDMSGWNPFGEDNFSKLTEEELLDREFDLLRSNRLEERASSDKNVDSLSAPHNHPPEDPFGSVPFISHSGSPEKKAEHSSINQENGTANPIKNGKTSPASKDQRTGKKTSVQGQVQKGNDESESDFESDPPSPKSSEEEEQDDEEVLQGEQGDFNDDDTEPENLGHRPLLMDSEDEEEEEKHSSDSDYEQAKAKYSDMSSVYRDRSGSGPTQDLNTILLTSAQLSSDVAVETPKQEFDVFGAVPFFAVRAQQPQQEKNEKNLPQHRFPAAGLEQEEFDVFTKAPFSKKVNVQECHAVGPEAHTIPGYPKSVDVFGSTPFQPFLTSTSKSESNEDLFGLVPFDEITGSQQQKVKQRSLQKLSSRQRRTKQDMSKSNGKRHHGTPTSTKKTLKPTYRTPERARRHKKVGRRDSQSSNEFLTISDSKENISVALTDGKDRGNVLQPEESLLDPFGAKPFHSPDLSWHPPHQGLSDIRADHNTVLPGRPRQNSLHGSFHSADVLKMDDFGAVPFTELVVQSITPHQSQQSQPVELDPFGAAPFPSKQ

[4] = molecular target: T2, Serine/threonine-protein kinase TAO1 (Homo sapiens) (UniProt Q7L7X3); assay: Selectivity interaction (KinomeScan (DiscoverX)) EUB0000229b TAOK1; settings: at 10 µM
T2 sequence (whole entry): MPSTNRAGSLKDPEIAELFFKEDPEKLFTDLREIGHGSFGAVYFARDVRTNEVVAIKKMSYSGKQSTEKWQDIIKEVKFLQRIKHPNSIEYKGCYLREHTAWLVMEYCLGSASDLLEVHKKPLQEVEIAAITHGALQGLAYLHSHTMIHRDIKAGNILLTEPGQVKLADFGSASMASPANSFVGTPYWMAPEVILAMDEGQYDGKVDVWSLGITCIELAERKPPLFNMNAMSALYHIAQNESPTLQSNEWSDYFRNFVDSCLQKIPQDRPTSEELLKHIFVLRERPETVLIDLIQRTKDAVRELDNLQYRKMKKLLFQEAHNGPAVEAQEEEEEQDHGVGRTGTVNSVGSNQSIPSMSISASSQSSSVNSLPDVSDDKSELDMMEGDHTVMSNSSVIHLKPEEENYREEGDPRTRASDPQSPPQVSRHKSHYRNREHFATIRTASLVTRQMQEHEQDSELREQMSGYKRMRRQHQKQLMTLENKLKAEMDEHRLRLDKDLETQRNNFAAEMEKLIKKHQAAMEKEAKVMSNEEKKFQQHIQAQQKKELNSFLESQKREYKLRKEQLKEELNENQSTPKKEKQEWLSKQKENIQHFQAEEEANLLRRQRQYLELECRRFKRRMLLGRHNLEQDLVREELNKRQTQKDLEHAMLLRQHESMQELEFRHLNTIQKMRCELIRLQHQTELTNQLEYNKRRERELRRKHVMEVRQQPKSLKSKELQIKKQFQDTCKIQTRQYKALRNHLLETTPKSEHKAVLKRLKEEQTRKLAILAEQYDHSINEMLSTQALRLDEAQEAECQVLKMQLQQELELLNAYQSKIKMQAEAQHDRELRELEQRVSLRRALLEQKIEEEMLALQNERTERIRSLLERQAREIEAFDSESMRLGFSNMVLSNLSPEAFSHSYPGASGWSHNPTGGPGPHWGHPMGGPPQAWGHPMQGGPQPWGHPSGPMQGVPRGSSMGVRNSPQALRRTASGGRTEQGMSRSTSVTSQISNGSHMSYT

Structure (SMILES): O=C(NOC[C@H](O)CO)c1ccc(F)c(F)c1Nc1ccc(I)cc1F
% of control [1]: 99%

% of inhibition [2]: 23%
Structure (SMILES): Cc1ccc(-c2ccc3c(ccc4sc5c(c43)NC[C@@H](C)NC5=O)n2)cn1

Structure (SMILES): CN(C)C/C=C/C(=O)Nc1ccc(C(=O)N2CCCC(Nc3ncc(Cl)c(-c4c[nH]c5ccccc45)n3)C2)cc1 (centres undefined)
% of control [3]: 100%

Structure (SMILES): COc1cc(N(C)c2ccnc3ccc(C(F)(F)F)cc23)cc(OC)c1OC
% binding [4]: 65%
